Data on 1 compound can be found in ChEMBL document CHEMBL4680187, “Optimization of EphA2 antagonists based on a lithocholic acid core led to the identification of UniPR505, a new 3α-carbamoyloxy derivative with antiangiogenetic properties” (Eur J Med Chem, 2020).

One data set concerns HUVEC. In words: Cytotoxicity against HUVEC cells upto 30 uM after 16 hrs by MTT assay. The class given is cell-based. As to conditions: human. On the technique in general: Tetrazolium assays rely on reduction of a dye to a coloured formazan, in cell work by metabolically active cells.
For the next data set, the target named is T1, Ephrin type-B receptor 1 (Rattus norvegicus, UniProt P09759).
T1 sequence (P09759 whole entry): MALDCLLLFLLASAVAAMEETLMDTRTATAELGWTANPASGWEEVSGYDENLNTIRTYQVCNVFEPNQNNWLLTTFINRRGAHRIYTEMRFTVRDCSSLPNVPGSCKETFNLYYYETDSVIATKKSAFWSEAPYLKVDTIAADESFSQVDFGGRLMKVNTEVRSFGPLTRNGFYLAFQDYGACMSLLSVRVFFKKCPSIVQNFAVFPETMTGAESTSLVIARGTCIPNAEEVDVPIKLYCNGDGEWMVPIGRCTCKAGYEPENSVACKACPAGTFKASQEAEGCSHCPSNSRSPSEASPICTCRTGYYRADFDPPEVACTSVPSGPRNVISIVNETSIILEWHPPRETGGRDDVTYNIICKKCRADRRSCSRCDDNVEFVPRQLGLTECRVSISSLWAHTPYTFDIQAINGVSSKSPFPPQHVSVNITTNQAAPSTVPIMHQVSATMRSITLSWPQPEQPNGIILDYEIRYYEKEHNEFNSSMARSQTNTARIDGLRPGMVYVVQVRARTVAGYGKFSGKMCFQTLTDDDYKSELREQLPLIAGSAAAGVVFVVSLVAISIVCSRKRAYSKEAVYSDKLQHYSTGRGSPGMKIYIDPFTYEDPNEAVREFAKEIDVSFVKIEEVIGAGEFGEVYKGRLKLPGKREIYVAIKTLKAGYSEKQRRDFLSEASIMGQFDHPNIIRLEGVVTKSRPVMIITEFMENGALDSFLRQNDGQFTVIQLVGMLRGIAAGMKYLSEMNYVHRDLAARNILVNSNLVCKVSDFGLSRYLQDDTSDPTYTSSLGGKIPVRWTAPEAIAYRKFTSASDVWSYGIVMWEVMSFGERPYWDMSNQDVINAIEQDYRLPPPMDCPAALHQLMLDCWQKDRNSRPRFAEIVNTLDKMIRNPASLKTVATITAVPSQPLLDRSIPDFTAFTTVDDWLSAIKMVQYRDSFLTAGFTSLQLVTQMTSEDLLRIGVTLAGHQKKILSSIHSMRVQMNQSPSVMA
The experiment in a line: Displacement of biotinylated ephrin-B1-Fc from rat EphB1 Fc preincubated for 1 hr followed by ephrin-B1-FC addition and measured after 4 hrs by ELISA. (In general: In an ELISA, binding on a coated surface is turned into a signal by an enzyme label.)

The next data set concerns PC-3. In words: Cytotoxicity against human PC3 cells after 2 hrs by LDH assay. In kind it is cell-based. As to conditions: pc-3, 2 h.
The next data set deals with T2, Ephrin type-A receptor 1 (Homo sapiens, UniProt P21709).
T2 sequence (P21709 whole entry): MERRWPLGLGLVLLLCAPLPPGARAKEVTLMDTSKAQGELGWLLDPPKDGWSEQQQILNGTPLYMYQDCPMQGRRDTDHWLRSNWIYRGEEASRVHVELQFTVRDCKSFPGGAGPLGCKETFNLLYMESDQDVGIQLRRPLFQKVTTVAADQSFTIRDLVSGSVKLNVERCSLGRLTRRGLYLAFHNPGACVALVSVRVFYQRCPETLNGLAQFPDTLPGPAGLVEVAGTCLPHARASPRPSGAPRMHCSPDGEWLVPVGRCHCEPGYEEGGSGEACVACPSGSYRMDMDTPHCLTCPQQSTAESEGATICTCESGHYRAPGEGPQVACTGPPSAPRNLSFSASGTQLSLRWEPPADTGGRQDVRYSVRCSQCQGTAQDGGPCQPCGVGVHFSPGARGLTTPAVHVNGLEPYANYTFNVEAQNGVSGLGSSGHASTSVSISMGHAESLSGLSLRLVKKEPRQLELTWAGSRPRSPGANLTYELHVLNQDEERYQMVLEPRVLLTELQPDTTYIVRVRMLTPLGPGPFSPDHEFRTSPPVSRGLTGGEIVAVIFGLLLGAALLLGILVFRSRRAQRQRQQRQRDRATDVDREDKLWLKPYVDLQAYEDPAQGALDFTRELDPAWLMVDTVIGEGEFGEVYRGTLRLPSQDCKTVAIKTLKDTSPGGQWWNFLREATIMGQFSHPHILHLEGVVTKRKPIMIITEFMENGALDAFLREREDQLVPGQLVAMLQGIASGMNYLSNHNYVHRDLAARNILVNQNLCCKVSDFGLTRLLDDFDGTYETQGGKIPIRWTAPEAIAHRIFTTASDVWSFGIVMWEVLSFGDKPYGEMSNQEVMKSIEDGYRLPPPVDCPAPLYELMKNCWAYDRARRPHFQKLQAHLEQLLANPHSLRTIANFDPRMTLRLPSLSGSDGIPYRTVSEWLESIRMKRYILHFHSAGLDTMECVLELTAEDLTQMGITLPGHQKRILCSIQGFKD
In words: Displacement of biotinylated ephrin-A1-Fc from human EphA1 Fc preincubated for 1 hr followed by ephrin-A1-FC addition and measured after 4 hrs by ELISA.

Molecules are shown by their SMILES.

Take `CCNC(=O)O[C@@H]1CC[C@@]2(C)[C@H](CC[C@@H]3[C@@H]2CC[C@]2(C)[C@@H]([C@H](C)CCC(=O)N[C@H](CC(=O)O)Cc4c[nH]c5ccccc45)CC[C@@H]32)C1`: the Activity entry with HUVEC and with PC-3 was “Non-Toxic” in each case. Further, the IC50 on Ephrin type-B receptor 1 and on Ephrin type-A receptor 1 was more than 30 µM throughout.
